These are literature values, as cited in US6355457B1, “Genes for the biosynthesis of epothilones” (Novartis AG, priority 1998, dated 2002).

For this data set, the system named is human solid tumors. The following applies: in vivo.

`CC(=O)O[C@H]1C(=O)[C@@]2(C)[C@H]([C@H](OC(=O)c3ccccc3)[C@]3(O)C[C@H](OC(=O)[C@H](O)[C@@H](NC(=O)c4ccccc4)c4ccccc4)C(C)=C1C3(C)C)[C@]1(OC(C)=O)CO[C@@H]1C[C@@H]2O` [Taxol]: the “activity against human solid tumors” value is “significant activity against various human solid tumors”.
With `CC(=O)O[C@@]12CO[C@@H]1C[C@H](O)[C@@]1(C)C(=O)[C@H](O)C3=C(C)[C@@H](OC(=O)[C@H](O)[C@@H](NC(=O)OC(C)(C)C)c4ccccc4)C[C@@](O)([C@@H](OC(=O)c4ccccc4)[C@H]21)C3(C)C` [taxotere], the “activity against human solid tumors” value is recorded as “significant activity against various human solid tumors”.
